Test results taken from PubChem BioAssay AID1259407 (Chemical Carcinogenesis Research Information System (CCRIS), 2018).
Activity calls are given as the source filed them. How the calls were made is not given here.

Tested on: CCRIS mutagenicity, Ames/micronucleus/aberration tests
Test: CCRIS mutagenicity studies
Conditions: Test System: AMES SALMONELLA TYPHIMURIUM

Measured: mutagenic call

COc1ccc(/C=C/c2ccc([N+](=O)[O-])cc2)cc1
inactive: Strain/Indicator: TA98(NR), Metabolic Activation: NONE, Method: STANDARD PLATE inactive; negative | Strain/Indicator: TA100 (NR), Metabolic Activation: NONE, Method: STANDARD PLATE inactive; negative | Strain/Indicator: TA100 (NR), Metabolic Activation: S-9, Method: STANDARD PLATE inactive; negative
active: Strain/Indicator: TA98 (NR), Metabolic Activation: S-9, Method: STANDARD PLATE active; positive | Strain/Indicator: TA98, Metabolic Activation: NONE, Method: STANDARD PLATE active; positive | Strain/Indicator: TA98, Metabolic Activation: S-9, Method: STANDARD PLATE active; positive | Strain/Indicator: TA100, Metabolic Activation: NONE, Method: STANDARD PLATE active; positive | Strain/Indicator: TA100, Metabolic Activation: S-9, Method: STANDARD PLATE active; positive

Nc1ccccc1C(=O)OC1CCCCC1
inactive: Strain/Indicator: TA97, Metabolic Activation: HAMSTER, LIVER, S-9, AROCLOR 1254 (10%), Method: PREINCUBATION inactive; negative | Strain/Indicator: TA97, Metabolic Activation: HAMSTER, LIVER, S-9, AROCLOR 1254 (30%), Method: PREINCUBATION inactive; negative | Strain/Indicator: TA97, Metabolic Activation: NONE, Method: PREINCUBATION inactive; negative | Strain/Indicator: TA97, Metabolic Activation: RAT, LIVER, S-9, AROCLOR 1254 (10%), Method: PREINCUBATION inactive; negative | Strain/Indicator: TA97, Metabolic Activation: RAT, LIVER, S-9, AROCLOR 1254 (30%), Method: PREINCUBATION inactive; negative | Strain/Indicator: TA98, Metabolic Activation: HAMSTER, LIVER, S-9, AROCLOR 1254 (10%), Method: PREINCUBATION inactive; negative | Strain/Indicator: TA98, Metabolic Activation: HAMSTER, LIVER, S-9, AROCLOR 1254 (30%), Method: PREINCUBATION inactive; negative | Strain/Indicator: TA98, Metabolic Activation: NONE, Method: PREINCUBATION inactive; negative | Strain/Indicator: TA98, Metabolic Activation: RAT, LIVER, S-9, AROCLOR 1254 (10%), Method: PREINCUBATION inactive; negative | Strain/Indicator: TA98, Metabolic Activation: RAT, LIVER, S-9, AROCLOR 1254 (30%), Method: PREINCUBATION inactive; negative | Strain/Indicator: TA100, Metabolic Activation: HAMSTER, LIVER, S-9, AROCLOR 1254 (10%), Method: PREINCUBATION inactive; negative | Strain/Indicator: TA100, Metabolic Activation: HAMSTER, LIVER, S-9, AROCLOR 1254 (30%), Method: PREINCUBATION inactive; negative | Strain/Indicator: TA100, Metabolic Activation: NONE, Method: PREINCUBATION inactive; negative | Strain/Indicator: TA100, Metabolic Activation: RAT, LIVER, S-9, AROCLOR 1254 (10%), Method: PREINCUBATION inactive; negative | Strain/Indicator: TA100, Metabolic Activation: RAT, LIVER, S-9, AROCLOR 1254 (30%), Method: PREINCUBATION inactive; negative | Strain/Indicator: TA1535, Metabolic Activation: HAMSTER, LIVER, S-9, AROCLOR 1254 (10%), Method: PREINCUBATION inactive; negative | Strain/Indicator: TA1535, Metabolic Activation: HAMSTER, LIVER, S-9, AROCLOR 1254 (30%), Method: PREINCUBATION inactive; negative | Strain/Indicator: TA1535, Metabolic Activation: NONE, Method: PREINCUBATION inactive; negative | Strain/Indicator: TA1535, Metabolic Activation: RAT, LIVER, S-9, AROCLOR 1254 (10%), Method: PREINCUBATION inactive; negative | Strain/Indicator: TA1535, Metabolic Activation: RAT, LIVER, S-9, AROCLOR 1254 (30%), Method: PREINCUBATION inactive; negative
